Measured values taken from the supplement of paper PMC10307832.

Legend:
Experiment in all cases: relative viability (nuclei count vs DMSO), 5 days (fraction); higher = more cells survive
BEN = test system: BEN
In short: (§1)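 After 5 days of treatment, lung cancer cells in 1536-well plates were fixed and stained in a single step (final 0.05% Triton X-100, 1% formaldehyde, 1 ug/ml Hoechst) and their nuclei counted on 4× images. Treatment had been applied by pin tool the day after seeding as one drug alone or as a fixed anchor-drug dose with five library-drug doses (not always all listed) in √10 steps. Relative viability is the nuclei count of treated wells divided by that of vehicle wells, and values are medians of duplicate plates.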

ChaGo-K-1 = test system: ChaGo-K-1
In short: as §1

HCC-78 = test system: HCC-78
In short: as §1

LC-2-ad = test system: LC-2-ad
In short: as §1

LCLC-97TM1 = test system: LCLC-97TM1
In short: as §1

LK-2 = test system: LK-2
In short: as §1

LU99A = test system: LU99A
In short: as §1

LXF-289 = test system: LXF-289
In short: as §1

NCI-H1355 = test system: NCI-H1355
In short: as §1

NCI-H1651 = test system: NCI-H1651
In short: as §1

NCI-H1666 = test system: NCI-H1666
In short: as §1

NCI-H1944 = test system: NCI-H1944
In short: as §1

NCI-H1975 = test system: NCI-H1975
In short: as §1

NCI-H2087 = test system: NCI-H2087
In short: as §1

NCI-H2342 = test system: NCI-H2342
In short: as §1

NCI-H358 = test system: NCI-H358
In short: as §1

NCI-H596 = test system: NCI-H596
In short: as §1

NCI-H650 = test system: NCI-H650
In short: as §1

NCI-H661 = test system: NCI-H661
In short: as §1

NCI-H838 = test system: NCI-H838
In short: as §1

PC-3 [JPC-3] = test system: PC-3 [JPC-3]
In short: as §1

SK-MES-1 = test system: SK-MES-1
In short: as §1

## CCN(CC)CCCCNc1ncc2cc(-c3cc(OC)cc(OC)c3)c(NC(=O)NC(C)(C)C)nc2n1 + Cc1cc(Nc2cc(N3CCN(C)CC3)nc(Sc3ccc(NC(=O)C4CC4)cc3)n2)n[nH]1 [Tozasertib] (partner 0.1 µM)
BEN; first compound 0.01 µM
  relative viability: 0.371
BEN; first compound 0.03162 µM
  relative viability: 0.508
BEN; first compound 0.1 µM
  relative viability: 0.515
BEN; first compound 0.3162 µM
  relative viability: 0.489
BEN; first compound 1 µM
  relative viability: 0.507
ChaGo-K-1; first compound 0.01 µM
  relative viability: 0.233
ChaGo-K-1; first compound 0.03162 µM
  relative viability: 0.213
ChaGo-K-1; first compound 0.1 µM
  relative viability: 0.223
ChaGo-K-1; first compound 0.3162 µM
  relative viability: 0.242
ChaGo-K-1; first compound 1 µM
  relative viability: 0.219
HCC-78; first compound 0.01 µM
  relative viability: 0.433
HCC-78; first compound 0.03162 µM
  relative viability: 0.399
HCC-78; first compound 0.1 µM
  relative viability: 0.507
HCC-78; first compound 0.3162 µM
  relative viability: 0.55
HCC-78; first compound 1 µM
  relative viability: 0.446
LC-2-ad; first compound 0.01 µM
  relative viability: 0.416
LC-2-ad; first compound 0.03162 µM
  relative viability: 0.467
LC-2-ad; first compound 0.1 µM
  relative viability: 0.433
LC-2-ad; first compound 0.3162 µM
  relative viability: 0.483
LC-2-ad; first compound 1 µM
  relative viability: 0.453
LCLC-97TM1; first compound 0.01 µM
  relative viability: 0.236
LCLC-97TM1; first compound 0.03162 µM
  relative viability: 0.268
LCLC-97TM1; first compound 0.1 µM
  relative viability: 0.255
LCLC-97TM1; first compound 0.3162 µM
  relative viability: 0.34
LCLC-97TM1; first compound 1 µM
  relative viability: 0.236
LK-2; first compound 0.01 µM
  relative viability: 0.168
LK-2; first compound 0.03162 µM
  relative viability: 0.196
LK-2; first compound 0.1 µM
  relative viability: 0.184
LK-2; first compound 0.3162 µM
  relative viability: 0.213
LK-2; first compound 1 µM
  relative viability: 0.159
LU99A; first compound 0.01 µM
  relative viability: 0.283
LU99A; first compound 0.03162 µM
  relative viability: 0.281
LU99A; first compound 0.1 µM
  relative viability: 0.324
LU99A; first compound 0.3162 µM
  relative viability: 0.269
LU99A; first compound 1 µM
  relative viability: 0.265
LXF-289; first compound 0.01 µM
  relative viability: 0.201
LXF-289; first compound 0.03162 µM
  relative viability: 0.219
LXF-289; first compound 0.1 µM
  relative viability: 0.268
LXF-289; first compound 0.3162 µM
  relative viability: 0.186
LXF-289; first compound 1 µM
  relative viability: 0.156
NCI-H1355; first compound 0.01 µM
  relative viability: 0.547
NCI-H1355; first compound 0.03162 µM
  relative viability: 0.559
NCI-H1355; first compound 0.1 µM
  relative viability: 0.52
NCI-H1355; first compound 0.3162 µM
  relative viability: 0.531
NCI-H1355; first compound 1 µM
  relative viability: 0.411
NCI-H1651; first compound 0.01 µM
  relative viability: 0.747
NCI-H1651; first compound 0.03162 µM
  relative viability: 0.716
NCI-H1651; first compound 0.1 µM
  relative viability: 0.907
NCI-H1651; first compound 0.3162 µM
  relative viability: 0.714
NCI-H1651; first compound 1 µM
  relative viability: 0.661
NCI-H1666; first compound 0.01 µM
  relative viability: 0.529
NCI-H1666; first compound 0.03162 µM
  relative viability: 0.635
NCI-H1666; first compound 0.1 µM
  relative viability: 0.673
NCI-H1666; first compound 0.3162 µM
  relative viability: 0.672
NCI-H1666; first compound 1 µM
  relative viability: 0.614
NCI-H1944; first compound 0.01 µM
  relative viability: 0.25
NCI-H1944; first compound 0.03162 µM
  relative viability: 0.27
NCI-H1944; first compound 0.1 µM
  relative viability: 0.248
NCI-H1944; first compound 0.3162 µM
  relative viability: 0.249
NCI-H1944; first compound 1 µM
  relative viability: 0.213
NCI-H1975; first compound 0.01 µM
  relative viability: 0.876
NCI-H1975; first compound 0.03162 µM
  relative viability: 0.859
NCI-H1975; first compound 0.1 µM
  relative viability: 1.1
NCI-H1975; first compound 0.3162 µM
  relative viability: 0.992
NCI-H1975; first compound 1 µM
  relative viability: 0.407
NCI-H2087; first compound 0.01 µM
  relative viability: 0.243
NCI-H2087; first compound 0.03162 µM
  relative viability: 0.282
NCI-H2087; first compound 0.1 µM
  relative viability: 0.25
NCI-H2087; first compound 0.3162 µM
  relative viability: 0.236
NCI-H2087; first compound 1 µM
  relative viability: 0.251
NCI-H2342; first compound 0.01 µM
  relative viability: 0.448
NCI-H2342; first compound 0.03162 µM
  relative viability: 0.513
NCI-H2342; first compound 0.1 µM
  relative viability: 0.476
NCI-H2342; first compound 0.3162 µM
  relative viability: 0.469
NCI-H2342; first compound 1 µM
  relative viability: 0.537
NCI-H358; first compound 0.01 µM
  relative viability: 0.108
NCI-H358; first compound 0.03162 µM
  relative viability: 0.0902
NCI-H358; first compound 0.1 µM
  relative viability: 0.115
NCI-H358; first compound 0.3162 µM
  relative viability: 0.104
NCI-H358; first compound 1 µM
  relative viability: 0.101
NCI-H596; first compound 0.01 µM
  relative viability: 0.911
NCI-H596; first compound 0.03162 µM
  relative viability: 0.903
NCI-H596; first compound 0.1 µM
  relative viability: 1.05
NCI-H596; first compound 0.3162 µM
  relative viability: 0.828
NCI-H596; first compound 1 µM
  relative viability: 0.747
NCI-H650; first compound 0.01 µM
  relative viability: 0.714
NCI-H650; first compound 0.03162 µM
  relative viability: 0.757
NCI-H650; first compound 0.1 µM
  relative viability: 0.765
NCI-H650; first compound 0.3162 µM
  relative viability: 0.704
NCI-H650; first compound 1 µM
  relative viability: 0.66
NCI-H661; first compound 0.01 µM
  relative viability: 0.38
NCI-H661; first compound 0.03162 µM
  relative viability: 0.327
NCI-H661; first compound 0.1 µM
  relative viability: 0.366
NCI-H661; first compound 0.3162 µM
  relative viability: 0.36
NCI-H661; first compound 1 µM
  relative viability: 0.36
NCI-H838; first compound 0.01 µM
  relative viability: 0.315
NCI-H838; first compound 0.03162 µM
  relative viability: 0.282
NCI-H838; first compound 0.1 µM
  relative viability: 0.259
NCI-H838; first compound 0.3162 µM
  relative viability: 0.271
NCI-H838; first compound 1 µM
  relative viability: 0.205
PC-3 [JPC-3]; first compound 0.01 µM
  relative viability: 0.988
PC-3 [JPC-3]; first compound 0.03162 µM
  relative viability: 0.958
PC-3 [JPC-3]; first compound 0.1 µM
  relative viability: 1.09
PC-3 [JPC-3]; first compound 0.3162 µM
  relative viability: 0.892
PC-3 [JPC-3]; first compound 1 µM
  relative viability: 0.632
SK-MES-1; first compound 0.01 µM
  relative viability: 1.01
SK-MES-1; first compound 0.03162 µM
  relative viability: 1.02
SK-MES-1; first compound 0.1 µM
  relative viability: 1.1
SK-MES-1; first compound 0.3162 µM
  relative viability: 1.03
SK-MES-1; first compound 1 µM
  relative viability: 0.879
